Results published in patent publication US20230147021A1, “POLYSULFIDE STABILIZATION” (University Public Corporation Osaka, priority 2020, published 2023).

Legend:
[1] = stabilization test for active sulfur molecules (residual GS-SS-SG by LC-MS/MS); assay type: physicochemical; conditions: 1 mM alkylating agent, 10 μM GS-SS-SG, pH 7.0, 37° C., FIG. 6; for active sulfur molecules stabilization (inhibition of GS-SS-SG autolysis): up to 4 hours
Protocol: Next, the stabilization effect of active sulfur molecules of each alkylating agent containing the new tyrosine derivative was evaluated. Oxidized glutathione tetrasulfide (GS-SS-SG) was used as a model compound for the active sulfur molecules.
The following were mixed: 50 μL of 200 mM phosphate buffer (pH 7.0) (final concentration: 100 mM), 5 μL of 20 mM alkylating agent (TME-IAM, HPE-IAM, MBB, IAM) or DMSO (final concentration: 1 mM), 10 μL of 100 μM GS-SS-SG (final concentration: 10 μM), and 35 μL of ultrapure water; and the mixture was incubated at 37° C. while shielding light. One, 2, 3, and 4 hours after the start of the reaction, 10 μL of the reaction solution and 90 μL of 0.1% formic acid were mixed, thereby terminating the reaction. By performing the LC-MS/MS by using unreacted 1 μM GS-SS-SG as standard, a residual amount of the GS-SS-SG in the reaction solution was analyzed.

[2] = reactivity with cysteine hydropolysulfide, adducts by LC-ESI-MS/MS; assay type: physicochemical; conditions: 1 mM agent, one hour at 37° C., CysS-(S)n—H from 100 μM cystine and 300 μM Na2S2; FIG. 10
Protocol: The reactivity of TME-IAM with respect to cysteine hydropolysulfide [CysS-(S)n—H] was verified as compared to HPE-IAM as indicated below.
CysSSH/CysS-(S)n—H which was prepared by incubating 100 μM cystine and 300 μM Na2S2 for 5 minutes at 37° C. was made to react with TME-IAM or HPE-IAM (1 mM each) for one hour at 37° C.
Next, its reaction mixture was provided to the LC-ESI-MS/MS analysis and respective adducts for CysSH/CysS-(S)n—H and HS^− (bis-S-adduct) were detected.
Incidentally, the concentration of each compound as sulfur is calculated according to the following formula: a concentration as sulfur=a concentration as the compound×the number of sulfur atoms in the compound (for example, in a case of CysSSH, the concentration as sulfur=2×[CysSSH]). Referring to FIG. 10, the concentrations of each adduct as the compound and sulfur are indicated as a bar with slanted stripes and a bar without stripes, respectively.

[3] = reactivity with hydrogen sulfide (Na2S), adducts by LC-ESI-MS/MS; assay type: physicochemical; conditions: 0.1 mM or 1 mM agent, 0.1 mM Na2S, one hour at 37° C.; FIG. 12
Protocol: The incubation of 0.1 mM or 1 mM TME-IAM (right side in FIG. 12) or MBB (left side in FIG. 12) was performed for one hour at 37° C. under the existence of 0.1 mM Na2S. As a result, the HS-adduct and the bis-S-adduct in the reaction mixture were respectively detected by the LC-ESI-MS/MS analysis.
The reaction mixture was separated by the Alliance e2695 system equipped with a YMC-Triart C18 column (inside diameter. 50×2.0 mm) and was then eluted with a linear gradient (30-99% for 5 minutes) by using methanol as a mobile phase under the existence of 0.1% FA (formic acid) at a flow speed of 0.3 mL/min at 40° C.

[4] = 37° C., neutral pH (pH 7.0); stated as known; cited from earlier work
[5] = GS-SS-SG protection effect of N-iodoacetyl tyrosine; assay type: physicochemical; conditions: compared with TME-IAM; FIG. 13
Excerpt: Incidentally, N-iodoacetyl tyrosine is expressed with the following chemical formula.

[6] = reactivity of alkylating agents with cysteine (LC-MS/MS of residual cysteine and cysteine adducts); assay type: physicochemical; conditions: 1 mM alkylating agent, 0.1 mM cysteine, phosphate buffer pH 7.5, 37° C., 1, 3 and 8 hours; FIG. 5
Protocol: Next, the reactivity between the tyrosine derivative according to the present invention and the active sulfur species was examined.
The following were mixed: 50 μL of 200 mM phosphate buffer (pH 7.5) (final concentration: 50 mM), 2 μL of 100 mM alkylating agent (TME-IAM, TEE-IAM, NAT-IAM, HPE-IAM) or DMSO (final concentration: 1 mM), 2 μL of 10 mM cysteine (final concentration: 0.1 mM), and 146 μL of ultrapure water, and the mixture was incubated at 37° C. while shielding light. One, 3, and 8 hours after the start of the reaction, 10 μL of the reaction solution and 90 μL of 0.1% formic acid were mixed, thereby terminating the reaction. By performing the LC-MS/MS by using unreacted 10 μM cysteine as standard, a residual amount of the cysteine in the reaction solution was analyzed and the generation of cysteine adducts by various kinds of alkylating agents was analyzed.

[7] = pH influence test for the GS-SS-SG protection effect; assay type: physicochemical; conditions: one hour, FIG. 7
Protocol: Next, the pH influence of the GS-SS-SG protection effect of TME-IAM was evaluated. It has been clarified that the active sulfur molecules GS-SS-SG are stable under acid conditions, while they are very unstable under alkali conditions.
The following were mixed: 50 μL of 200 mM phosphate buffer (pH 7.0, 7.5, 8.0) (final concentration: 100 mM) and 5 μL of 20 mM TME-IAM solution (final concentration: 1 mM), 10 μL of 100 μM GS-SS-SG (final concentration: 10 μM), and 35 μL of ultrapure water; and the mixture was incubated at 37° C. while shielding light. One hour after the start of the reaction, 10 μL of the reaction solution and 90 μL of 0.1% formic acid were mixed, thereby terminating the reaction. By performing the LC-MS/MS analysis by using unreacted 1 μM GS-SS-SG as standard, a residual amount of GS-SS-SG in the reaction solution was analyzed.

[8] = reaction mole ratio (processing concentration) influence test for the GS-SS-SG protection effect; assay type: physicochemical; conditions: 400-fold higher concentration than GS-SS-SG (10 μM), pH 7.0, 37° C., one hour; FIG. 8
Protocol: In order to detect the active sulfur molecules with high sensitivity, it is important to form a stable derivative. In order to do so, it is necessary to add a high-concentration alkylating agent to a specimen; and it is known that the addition of the high-concentration alkylating agent promotes the decomposition of the active sulfur molecules (NPL 1). So, processing concentration dependency of the active sulfur molecules stabilization activity of TME-IAM was analyzed by using the active sulfur molecules GS-SS-SG.
The following were mixed: 50 μL of 200 mM phosphate buffer (pH 7.0) (final concentration: 100 mM) and 5-20 μL of a TME-IAM solution (final concentration: 0.25, 0.5, 1, 2, 4 mM), 10 μL of 100 μM GS-SS-SG (final concentration: 10 μM), and 20-35 μL of ultrapure water; and the mixture was incubated at 37° C. while shielding light. One hour after the start of the reaction, 10 μL of the reaction solution and 90 μL of 0.1% formic acid were mixed, thereby terminating the reaction. By performing the LC-MS/MS analysis by using unreacted 1 μM GS-SS-SG as standard, a residual amount of GS-SS-SG in the reaction solution was analyzed.

[9] = stabilization of oxidized glutathione polysulfides with different numbers of sulfur atoms; assay type: physicochemical; conditions: 1 mM TME-IAM, 10 μM GS-SSS-SG, pH 7.0, 37° C., 30 minutes after the processing; FIG. 9
Protocol: It has been made clear that compounds with different quantities of sulfur atoms included in the molecules exist in the active sulfur molecules. In general, the compound including a larger number of sulfur atoms has higher reactivity and has unstable molecules. So, the active sulfur molecules stabilization effect of TME-IAM was analyzed by using the active sulfur molecules with different quantities of the contained sulfur atoms. For this analysis, oxidized glutathione pentasulfide (GS-SSS-SG) and oxidized glutathione trisulfide (GS-S-SG) were used in addition to GS-SS-SG.
The following were mixed: 50 μL of 200 mM phosphate buffer (pH 7.0) (final concentration: 100 mM) and 5 μL of […] TME-IAM solution (final concentration: 1 mM), 10 μL of 100 μM oxidized form glutathione polysulfide (GS-SSS-SG, GS-SS-SG, GS-S-SG) (final concentration: 10 μM), and 35 μL of ultrapure water; and the mixture was incubated at 37° C. while shielding light. […] By performing the LC-MS/MS analysis by using each unreacted 1 μM oxidized form glutathione polysulfide (GS-SSS-SG, GS-SS-SG, GS-S-SG) as standard, a residual amount of the oxidized form glutathione polysulfide GS-SSS-SG, GS-SS-SG, GS-S-SG) in the reaction solution was analyzed.

[10] = system: HEK (human embryonic kidney) 293T cells; experiment: cell permeability and esterase sensitivity in HEK 293T cells; assay type: cell-based; conditions: 1 mM TME-IAM, one hour at 37° C., FIG. 11A
Protocol: (§1) The following test was conducted with regard to cell permeability and esterase sensitivity of TME-IAM. FIG. 11 illustrates representative mass chromatographs of (A) HEK (human embryonic kidney) 293T cells and (B) mice liver homogenate which were processed with TME-IAM.
(§2) After processing the HEK 293T cells for one hour at 37° C. by using 1 mM TME-IAM, they were homogenized by ultrasonication in 80% methanol. The mice liver tissues were also homogenized by ultrasonication in 80% methanol containing 1 mM TME-IAM and were incubated for one hour at 37° C. After centrifugal separation of each of them, the obtained supernatant was collected and then diluted to 10 times by using 0.1% FA (formic acid).
(§3) Next, the mixture was made to undergo the LC-ESI-MS/MS analysis and individual by-products driving from TME-IAM, its glutathione adduct (GS-AM-TME), and esterase dependency cleavage were detected. They are Tyr-IAM ((2-iodoacetyl)-I-tyrosine) and GS-AM-Tyr (GSH adduct of (2-iodoacetyl)-1-tyrosine), respectively.

[11] = esterase-dependent by-product formation in mice liver homogenate in 80% methanol; assay type: in vitro ADME; conditions: mice liver tissues homogenized in 80% methanol containing 1 mM TME-IAM, one hour at 37° C.; FIG. 11B
Protocol: as §1, §2, §3
Accordingly, in order to evaluate the possibility of forming these derivatives when in vivo samples are used for the reactivity sulfur metabolome analysis, mice liver tissues were prepared in 80% methanol containing 1 mM TME-IAM, homogenized, and incubated for one hour at 37° C., and the obtained samples were analyzed by LC-ESI-MS/MS.

With `O=C(CI)NCCc1ccc(O)cc1` [HPE-IAM, f-(4-hydroxyphenyl) ethyl iodoacetamide, reference compound] the “active sulfur molecules stabilization (inhibition of GS-SS-SG autolysis)” value [1] was “inhibited significantly” and the “amount of HS− (bis-S adduct) decomposition product” value [2] was “prominently higher than the amount of the product detected by using TME-IAM”.
In the case of `Cc1c(C)n2c(CBr)c(C)c(=O)n2c1=O` [MBB, monobromobimane, reference compound], the “reactivity with hydrogen sulfide” value [3] is given as “react with hydrogen sulfide and form the bis-S-adduct” and the “effect on decomposition of GS-SS-SG” value [4] is given as “decomposition is promoted”.
With `O=C(CI)N[C@@H](Cc1ccc(O)cc1)C(=O)O` [N-iodoacetyl tyrosine] the GS-SS-SG protection effect [5] was “same level of the GS-SS-SG protection effect as that of TME-IAM”.
For `CC(=O)NC(Cc1ccc(O)cc1)C(=O)NC(=O)CI` (stereo not drawn) [NAT-IAM], the “reactivity with the thiol group (cysteine)” value (shortened to “reactivity … (cysteine)”) [6] was “lower reactivity with cysteine than that of TME-IAM and HPE-IAM”.
For `CCOC(=O)C(Cc1ccc(O)cc1)NC(=O)CI` (stereo not drawn) [TEE-IAM], the “reactivity … (cysteine)” value [6] was “lower reactivity with cysteine than that of TME-IAM and HPE-IAM”.
In the case of `COC(=O)[C@H](Cc1ccc(O)cc1)NC(=O)CI` [TME-IAM, N-iodoacetyl tyrosine methyl ester], the “reactivity … (cysteine)” value [6] is reported as “same level of reactivity with the thiol group (cysteine) as that of HPE-IAM”, the GS-SS-SG remained ([1]; incubation for 4 hours) is reported as “approximately 80%” and the “active sulfur molecules stabilization (inhibition of GS-SS-SG autolysis)” value [1] is reported as “high active sulfur molecules stabilization activity”. The GS-SS-SG remained ([7]; 1 mM TME-IAM, 10 μM GS-SS-SG, weakly alkaline solution (pH 8.0), 37° C.) was “approximately 70%”, the “GS-SS-SG remaining compared with HPE-IAM” value ([7]; pH 8.0, 37° C.) was “higher value than that of the system to which the publicly known iodoacetamide derivative HPE-IAM was added” and the “reduction of GS-SS-SG at high alkylating agent concentration” value [8] was “any significant reduction of GSSSSG was not observed”. The “decomposition suppression of GS-SSS-SG” value [9] was “predominant decomposition suppression”, the “amounts of CysSSH and CysSSSH detected” value [2] was “significantly larger than those detected by using HPE-IAM” and the cell permeability [10] was “can permeate through cell membranes”. For the same compound, the “esterase-dependent by-product Tyr-IAM in samples” value [11] was “rarely detected” and the “reactivity with hydrogen sulfide” value [3] was “react with hydrogen sulfide and form the bis-S-adduct”.
